Literature values in patent publication US20100112033A1, “STENTS COATED WITH NO- AND S-NITROSOTHIOL-ELUTING HYDROPHLIC POLYMERIC BLENDS” (Universidade Estadual de Campinas UNICAMP, priority 2005, published 2010).

What was measured:
[1] = system: platelet aggregation; details: compared to non-nitrosated polymer
[2] = system: stenosis; details: applied to damaged vascular site, rabbit coronary artery
[3] = system: neointimal formation; details: compared to non-nitrosated polymer
[4] = system: neointimal hyperplasia; details: patients, six months after stenting

Row | Substance | reduction of platelet aggregation [1] | effect on stenosis [2] | reduction of neointimal formation [3] | neointimal hyperplasia [4]
1 | bovine S-nitrosated albumin: nitrosated protein, a protein adduct of nitric oxide | 50-70% | proved to reduce stenosis | 40% | 
2 | sirulimus |  |  |  | minimal neointimal hyperplasia
